Target: T1, AcCPR (Aphis citricidus, UniProt A0A346QRP0)
T1 construct: full-length ORF in pFastBac HT A, 6xHis-tagged, Sf9 cell extract (soluble supernatant; called microsomes in results)
T1 sequence (A0A346QRP0 1-681): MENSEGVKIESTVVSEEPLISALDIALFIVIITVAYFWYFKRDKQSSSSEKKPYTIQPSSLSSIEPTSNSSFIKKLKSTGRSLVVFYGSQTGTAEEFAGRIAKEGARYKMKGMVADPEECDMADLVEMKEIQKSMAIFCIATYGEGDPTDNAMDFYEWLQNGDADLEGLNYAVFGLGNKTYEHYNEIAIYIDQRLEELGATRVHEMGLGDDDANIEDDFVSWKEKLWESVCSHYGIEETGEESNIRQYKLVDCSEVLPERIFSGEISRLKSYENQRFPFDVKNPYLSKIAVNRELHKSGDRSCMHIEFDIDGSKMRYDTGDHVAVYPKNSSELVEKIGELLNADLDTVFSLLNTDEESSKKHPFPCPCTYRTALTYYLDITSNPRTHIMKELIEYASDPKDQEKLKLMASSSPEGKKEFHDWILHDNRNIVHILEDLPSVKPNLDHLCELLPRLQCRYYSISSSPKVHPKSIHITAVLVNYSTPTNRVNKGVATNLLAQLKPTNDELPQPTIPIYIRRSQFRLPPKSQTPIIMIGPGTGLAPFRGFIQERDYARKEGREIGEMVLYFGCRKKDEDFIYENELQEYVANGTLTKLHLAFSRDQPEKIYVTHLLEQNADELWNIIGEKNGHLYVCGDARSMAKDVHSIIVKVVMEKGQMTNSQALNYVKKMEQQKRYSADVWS
Assay: NADPH-cytochrome c reduction, absorbance at […] nm, Sf9 cell extract
Format: biochemical
Conditions: cytochrome c as electron acceptor, 0.3 M potassium phosphate pH 7.7; NADPH 2 uL of 10 mM stock in 200 uL

For `NC(=O)C1=CN([C@@H]2O[C@H](COP(=O)(O)OP(=O)(O)OC[C@H]3O[C@@H](n4cnc5c(N)ncnc54)[C@H](OP(=O)(O)O)[C@@H]3O)[C@@H](O)[C@H]2O)C=CC1` [NADPH], the “NADPH-cytochrome c reduction, absorbance at 550 nm, Sf9 cell extract” value was “Heterologously expressed AcCPR activity was determined by spectrophotometric measurement of the activity of NADPH-cytochrome-c reduction”.
